Laboratory results: patent US11419335B2, “N-arylated analogues and uses thereof” (University of Florida Research Foundation, Incorporated, priority 2016, dated 2022)
Read-outs that look alike come from different tables or passages of the source. Marks after values point to notes of the source that are not given here.

Legend:
[1] = system: methicillin-resistant Staphylococcus aureus MRSA-2 (clinical isolate); assay: MIC broth microdilution, MRSA-2; assay type: cell-based
Method: (§1) The minimum inhibitory concentration (MIC) for each tested compound was determined by the broth microdilution method as recommended by the Clinical and Laboratory Standards Institute (CLSI). In a 96-well plate, eleven two-fold serial dilutions of each compound were made in a final volume of 100 μL Luria Broth. Each well was inoculated with ˜10^5 bacterial cells at the initial time of incubation, prepared from a fresh log phase culture (OD600 of 0.5 to 1.0 depending on bacterial strain). The MIC was defined as the lowest concentration of compound that prevented bacterial growth after incubating 16 to 18 hours at 37° C. (MIC values were supported by spectrophotometric readings at OD600). DMSO served as our vehicle and negative control in each microdilution MIC assay. DMSO was serially diluted with a top concentration of 1% v/v.
as §1, with “for each compound was” for “for each tested compound was”, “Standards Institute (CLSI).^6 In a” for “Standards Institute (CLSI). In a”, “concentration of test compound that” for “concentration of compound that”, “37° C. The concentration range tested for each compound during this study was 0.10 to 100 μM. DMSO served” for “37° C. (MIC values were supported by spectrophotometric readings at OD600). DMSO served”, “1% v/v. All MIC values were obtained from a minimum of three independent experiments.” for “1% v/v.”

MRSA BAA-1707 = assay: MIC broth microdilution, MRSA BAA-1707; assay type: cell-based, Staphylococcus aureus
Method: as §1, with “The MIC was defined as the lowest concentration of compound that prevented bacterial growth after incubating 16 to 18 hours at 37° C.” left out
Each well was inoculated with ˜10^5 bacterial cells at the initial time of incubation, prepared from a fresh log phase culture (OD600 of 0.5 to 1.0 depending on bacterial strain). […] The concentration range tested for each compound during this study was 0.10 to 100 μM. DMSO served as our vehicle and negative control in each microdilution MIC assay. DMSO was serially diluted with a top concentration of 1% v/v. All MIC values were obtained from a minimum of three independent experiments.

[2] = system: methicillin-resistant Staphylococcus epidermidis (MRSE strain ATCC 35984); assay: MIC broth microdilution, MRSE 35984; assay type: cell-based
Method: as §1
as §1, with “for each compound was” for “for each tested compound was”, “Standards Institute (CLSI).^6 In a” for “Standards Institute (CLSI). In a”, “concentration of test compound that” for “concentration of compound that”, “37° C. The concentration range tested for each compound during this study was 0.10 to 100 μM. DMSO served” for “37° C. (MIC values were supported by spectrophotometric readings at OD600). DMSO served”, “1% v/v. All MIC values were obtained from a minimum of three independent experiments.” for “1% v/v.”

[3] = system: vancomycin-resistant Enterococcus faecium (VRE strain ATCC 700221); assay: MIC broth microdilution, VRE 700221; assay type: cell-based
Method: as §1
as §1, with “for each compound was” for “for each tested compound was”, “Standards Institute (CLSI).^6 In a” for “Standards Institute (CLSI). In a”, “concentration of test compound that” for “concentration of compound that”, “37° C. The concentration range tested for each compound during this study was 0.10 to 100 μM. DMSO served” for “37° C. (MIC values were supported by spectrophotometric readings at OD600). DMSO served”, “1% v/v. All MIC values were obtained from a minimum of three independent experiments.” for “1% v/v.”

[4] = system: Acinetobacter baumannii (ATCC 1794); assay: MIC broth microdilution, A. baumannii 1794; assay type: cell-based
Method: as §1
as §1, with “for each compound was” for “for each tested compound was”, “Standards Institute (CLSI).^6 In a” for “Standards Institute (CLSI). In a”, “concentration of test compound that” for “concentration of compound that”, “37° C. The concentration range tested for each compound during this study was 0.10 to 100 μM. DMSO served” for “37° C. (MIC values were supported by spectrophotometric readings at OD600). DMSO served”, “1% v/v. All MIC values were obtained from a minimum of three independent experiments.” for “1% v/v.”

[5] = system: Pseudomonas aeruginosa (PAO1); assay: MIC broth microdilution, PAO1; assay type: cell-based
Method: as §1
as §1, with “for each compound was” for “for each tested compound was”, “Standards Institute (CLSI).^6 In a” for “Standards Institute (CLSI). In a”, “concentration of test compound that” for “concentration of compound that”, “37° C. The concentration range tested for each compound during this study was 0.10 to 100 μM. DMSO served” for “37° C. (MIC values were supported by spectrophotometric readings at OD600). DMSO served”, “1% v/v. All MIC values were obtained from a minimum of three independent experiments.” for “1% v/v.”

[6] = system: Klebsiella pneumoniae (ATCC 13883); assay: MIC broth microdilution, K. pneumoniae 13883; assay type: cell-based
Method: as §1
as §1, with “for each compound was” for “for each tested compound was”, “Standards Institute (CLSI).^6 In a” for “Standards Institute (CLSI). In a”, “concentration of test compound that” for “concentration of compound that”, “37° C. The concentration range tested for each compound during this study was 0.10 to 100 μM. DMSO served” for “37° C. (MIC values were supported by spectrophotometric readings at OD600). DMSO served”, “1% v/v. All MIC values were obtained from a minimum of three independent experiments.” for “1% v/v.”

[7] = system: Escherichia coli clinical isolate (UAEC-1); assay: MIC broth microdilution, UAEC-1; assay type: cell-based
Method: as §1
as §1, with “for each compound was” for “for each tested compound was”, “Standards Institute (CLSI).^6 In a” for “Standards Institute (CLSI). In a”, “concentration of test compound that” for “concentration of compound that”, “37° C. The concentration range tested for each compound during this study was 0.10 to 100 μM. DMSO served” for “37° C. (MIC values were supported by spectrophotometric readings at OD600). DMSO served”, “1% v/v. All MIC values were obtained from a minimum of three independent experiments.” for “1% v/v.”

[8] = system: human red blood cells (hRBC); assay: Hemolysis of red blood cells; assay type: cell-based
Method: The washing was repeated three times with the buffer. In a 96-well plate, test compounds were added to the buffer from DMSO stocks. […] The plate was then incubated for 1 hour at 37° C. After incubation, the plate was centrifuged for 5 minutes at 3,500 rpm. Then 80 μL of the supernatant was transferred to another 96-well plate and the optical density (OD) was read at 405 nm. DMSO served as our negative control (0% hemolysis) while Triton X served as our positive control (100% hemolysis). […] All reported data correspond to three independent experiments. Ten-point dose-response curves were generated in 96-well plates to determine 50% hemolysis (HC50 values) of red blood cells.
The washing was repeated three times with the buffer. In 96-well plate, the test compounds were added to the buffer. Then 50 μL of 2% of hRBCs in the buffer were added to the test plate to make the final concentrations ranging from 0.2 to 200 μM of each test compound. The plate was then incubated for 1 hour at 37° C. After incubation, the plate was centrifuged for 5 minutes at 3500 rpm and then 80 μL of the supernatant was transferred to another 96-well plate and the Optical Density (OD) was read at 405 nm. DMSO served as our negative control (0% haemolysis) and Triton X served as our positive control (100% haemolysis). The HC50 (concentration of test compound required to lyse red blood cells by 50%) was calculated by plotting the dose-response curve (not shown) with Graphpad Prism 6.0. All data were obtained from three independent haemolysis experiments.

MRSA BAA-1707 biofilms = assay: Calgary Biofilm Device assay (MBC/MBEC), MRSA BAA-1707; assay type: cell-based, Staphylococcus aureus; conditions: Table 2, CBD assay
Method: (§2) The lid of the Calgary device was then removed, washed and transferred to another 96-well plate containing 2-fold serial dilutions of the test compounds (the “challenge plate”). The total volume of media with compound in each well in the challenge plate is 150 μL. […] The lid was then removed from the challenge plate and MBC/MBEC values were determined using different final assays. […] The MBC values were determined as the concentration giving a lack of visible bacterial growth (i.e., turbidity). […] In select experiments, pegs from the Calgary device were removed from lead biofilm eradicators after final incubation, sonicated for 30 minutes in PBS and plated out to determine biofilm cell killing of lead biofilm-eradicating agents (i.e., colony forming unit per milliliter, CFU/mL).
(§3) Using a Calgary Biofilm Device, bacterial biofilms are established on pegs suspended to the bottom of a 96-well plate lid. Following biofilm establishment on lid pegs, lids are then transferred to new 96-well plates containing serial dilutions of test compound and allowed to incubate. After compound treatment, 96-well plate lids with pegs are once again transferred to 96-well plates containing fresh media. During this final phase of the assay, viable biofilms will grow and disperse planktonic cells into the media where they will grow and give a turbid well result. Conversely, wells that have no growth are a result of pegs that had eradicated bacterial biofilms. The lowest concentration at which no turbidity is observed is the minimum biofilm eradication concentration (MBEC). Using the Calgary Biofilm Device, both minimum biofilm eradication concentrations and minimum bactericidal concentrations (MBC) for planktonic bacterial can be determined using one assay from a single bacterial culture (FIG. 3A).

MRSE ATCC 35984 biofilms = assay: Calgary Biofilm Device assay (MBC/MBEC), MRSE 35984; assay type: cell-based, Staphylococcus epidermidis; conditions: Table 2, CBD assay
Method: as §2, §3

VRE ATCC 700221 biofilms = assay: Calgary Biofilm Device assay (MBC/MBEC), VRE 700221; assay type: cell-based, Enterococcus faecium; conditions: Table 2, CBD assay
Method: as §2, §3

MIC ([1]; MRSA-2 and MRSA BAA-1707, read-out: MIC against two MRSA strains): 6.25 µM | MIC ([1]; Table 1, read-out: MIC MRSA-2): 6.25 µM | MIC MRSA-2 ([1]; Table 4): 6.25 µM | MIC (MRSA BAA-1707; Table 1, read-out: MIC MRSA BAA-1707): 6.25 µM | MIC (MRSA BAA-1707; Table 2, read-out: MRSA BAA-1707 MIC): 6.25 µM | MIC MRSA 1707 (MRSA BAA-1707; Table 4): 6.25 µM | MIC ([2]; Table 1, read-out: MIC MRSE 35984): 3.13 µM | MIC ([2]; Table 2, read-out: MRSE 35984 MIC): 3.13 µM | MIC MRSE 35984 ([2]; Table 4): 3.13 µM | MIC ([3]; Table 1, read-out: MIC VRE 700221): 25 µM | MIC ([3]; Table 2, read-out: VRE 700221 MIC): 25 µM | MIC VRE 700221 ([3]; Table 4): 25 µM | MIC A. baumannii 1794 ([4]; Table 1): 75^a μM | MIC A. bau. 1794 ([4]; Table 4): 75a micromolar | MIC ([5]; Table 1): >100 µM | MIC PAO1 ([5]; Table 4): >100 µM | MIC K. pneumoniae 13883 ([6]; Table 1): 75^a μM | MIC K. pneu. 13883 ([6]; Table 4): 75a micromolar | MIC ([7]; Table 1): 50 µM | MIC UAEC-1 ([7]; Table 4): 50 µM
SMILES: CCCCCCCCCCCC[N+](C)(C)Cc1ccccc1.[Cl-] [BAC-12, reference compound]
HC50 [8]: > 100 µM | MRSA BAA-1707 MBEC (MRSA BAA-1707 biofilms; biofilm): > 1000 µM | MBC (MRSA BAA-1707 biofilms; planktonic cells): 15.6 µM | MRSE 35984 MBEC (MRSE ATCC 35984 biofilms; biofilm): > 2000 µM | MBC (MRSE ATCC 35984 biofilms; planktonic cells): 11.7 µM | VRE 700221 MBEC (VRE ATCC 700221 biofilms; biofilm): 23.5 µM | MBC (VRE ATCC 700221 biofilms; planktonic cells): 31.3 µM
